Data: PubChem BioAssay AID2060620 (Molecular Pharmacology Branch, DTP, NCI, 2025)

System: 328373-195-R-J1-PDC complex spheroids, viability % test/control
Test: Anticancer human tumor 328373-195-R-J1-PDC patient-derived head and neck squamous carcinoma cell line growth inhibition [CLK]
Settings: for IC50: curve of first compound; for viability, T/C: stronger effect = lower value
How it was run: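 Patient-derived tumor cells grown as complex spheroids with HUVEC endothelial cells and mesenchymal stem cells, treated with drug combinations. Concentrations descend in half-log steps from near clinical Cmax, or from 10 microM if Cmax unknown.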

[1] = second compound 0.0316 µM, first compound 0.0316 µM
[2] = second compound 0.0316 µM, first compound 0.1 µM
[3] = second compound 0.0316 µM, first compound 0.316 µM
[4] = second compound 0.0316 µM, first compound 1 µM
[5] = second compound 0.0316 µM, first compound 3.16 µM
[6] = second compound 0.0316 µM, first compound 10 µM
[7] = second compound 0.1 µM, first compound 0.0316 µM
[8] = second compound 0.1 µM, first compound 0.1 µM
[9] = second compound 0.1 µM, first compound 0.316 µM
[10] = second compound 0.1 µM, first compound 1 µM
[11] = second compound 0.1 µM, first compound 3.16 µM
[12] = second compound 0.1 µM, first compound 10 µM
[13] = second compound 0.316 µM, first compound 0.0316 µM
[14] = second compound 0.316 µM, first compound 0.1 µM
[15] = second compound 0.316 µM, first compound 0.316 µM
[16] = second compound 0.316 µM, first compound 1 µM
[17] = second compound 0.316 µM, first compound 3.16 µM
[18] = second compound 0.316 µM, first compound 10 µM
[19] = second compound 1 µM, first compound 0.0316 µM
[20] = second compound 1 µM, first compound 0.1 µM
[21] = second compound 1 µM, first compound 0.316 µM
[22] = second compound 1 µM, first compound 1 µM
[23] = second compound 1 µM, first compound 3.16 µM
[24] = second compound 1 µM, first compound 10 µM
[25] = second compound 3.16 µM, first compound 0.0316 µM
[26] = second compound 3.16 µM, first compound 0.1 µM
[27] = second compound 3.16 µM, first compound 0.316 µM
[28] = second compound 3.16 µM, first compound 1 µM
[29] = second compound 3.16 µM, first compound 3.16 µM
[30] = second compound 3.16 µM, first compound 10 µM
[31] = second compound 10 µM, first compound 0.0316 µM
[32] = second compound 10 µM, first compound 0.1 µM
[33] = second compound 10 µM, first compound 0.316 µM
[34] = second compound 10 µM, first compound 1 µM
[35] = second compound 10 µM, first compound 3.16 µM
[36] = second compound 10 µM, first compound 10 µM
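Also: spheroids exposed to the agents for 7 days.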

Question: Which results are given for CC1(C)CCC(CN2CCN(c3ccc(C(=O)NS(=O)(=O)c4ccc(NCC5CCOCC5)c([N+](=O)[O-])c4)c(Oc4cnc5[nH]ccc5c4)c3)CC2)=C(c2ccc(Cl)cc2)C1 + CN1CCN(c2cc(C(=O)Nc3cc4cc(-c5cnn(C)c5)ccc4cn3)ccn2)CC1?
Answer: IC50 (second compound 0.0316 µM): 6500 nM; IC50 (second compound 0.1 µM): > 10000 nM; IC50 (second compound 0.316 µM): < 31.6 nM; IC50 (second compound 1 µM): < 31.6 nM; IC50 (second compound 3.16 µM): < 31.6 nM; IC50 (second compound 10 µM): < 31.6 nM; viability, T/C [1]: 98.7%; viability, T/C [2]: 99.3%; viability, T/C [3]: 93.3%; viability, T/C [4]: 91.4%; viability, T/C [5]: 83.8%; viability, T/C [6]: 30.1%; viability, T/C [7]: 88.8%; viability, T/C [8]: 83.2%; viability, T/C [9]: 86.4%; viability, T/C [10]: 81.8%; viability, T/C [11]: 78.2%; viability, T/C [12]: 51.5%; viability, T/C [13]: 28%; viability, T/C [14]: 34.3%; viability, T/C [15]: 33.9%; viability, T/C [16]: 31.2%; viability, T/C [17]: 33%; viability, T/C [18]: 40.4%; viability, T/C [19]: 0.22%; viability, T/C [20]: 0.22%; viability, T/C [21]: 0.21%; viability, T/C [22]: 0.14%; viability, T/C [23]: 2.75%; viability, T/C [24]: 3.03%; viability, T/C [25]: 0.09%; viability, T/C [26]: 0.14%; viability, T/C [27]: 1.25%; viability, T/C [28]: 0.12%; viability, T/C [29]: 0.11%; viability, T/C [30]: 0.15%; viability, T/C [31]: 0.11%; viability, T/C [32]: 1.97%; viability, T/C [33]: 3.19%; viability, T/C [34]: 0.16%; viability, T/C [35]: 1.92%; viability, T/C [36]: 2.43%

Question: What does the source list for CC(Nc1ccc2c(c1)OCCn1cc(N3C(=O)OCC3C(F)F)nc1-2)C(N)=O (centres undefined) + CN1CCN(c2cc(C(=O)Nc3cc4cc(-c5cnn(C)c5)ccc4cn3)ccn2)CC1?
Answer: IC50 (second compound 0.0316 µM): > 10000 nM; IC50 (second compound 0.1 µM): 2420 nM; IC50 (second compound 0.316 µM): < 31.6 nM; IC50 (second compound 1 µM): < 31.6 nM; IC50 (second compound 3.16 µM): < 31.6 nM; IC50 (second compound 10 µM): < 31.6 nM; viability, T/C [1]: 90.4%; viability, T/C [2]: 88.7%; viability, T/C [3]: 87.1%; viability, T/C [4]: 78.4%; viability, T/C [5]: 58.1%; viability, T/C [6]: 53.7%; viability, T/C [7]: 75.8%; viability, T/C [8]: 74.3%; viability, T/C [9]: 73.7%; viability, T/C [10]: 67.2%; viability, T/C [11]: 44.2%; viability, T/C [12]: 45.4%; viability, T/C [13]: 34.3%; viability, T/C [14]: 28.9%; viability, T/C [15]: 28.8%; viability, T/C [16]: 23.8%; viability, T/C [17]: 17.7%; viability, T/C [18]: 17.5%; viability, T/C [19]: 0.25%; viability, T/C [20]: 0.23%; viability, T/C [21]: 1.16%; viability, T/C [22]: 0.41%; viability, T/C [23]: 1.23%; viability, T/C [24]: 1.08%; viability, T/C [25]: 1.31%; viability, T/C [26]: 0.16%; viability, T/C [27]: 1.05%; viability, T/C [28]: 0.11%; viability, T/C [29]: 2.46%; viability, T/C [30]: 2.43%; viability, T/C [31]: 0.1%; viability, T/C [32]: 1.44%; viability, T/C [33]: 0.26%; viability, T/C [34]: 0.2%; viability, T/C [35]: 2.32%; viability, T/C [36]: 1.83%
